The text below walks through data of ChEMBL document CHEMBL1909046, “DrugMatrix in vitro pharmacology data”.

Chain of Vascular endothelial growth factor receptor 1 (P17948 whole entry): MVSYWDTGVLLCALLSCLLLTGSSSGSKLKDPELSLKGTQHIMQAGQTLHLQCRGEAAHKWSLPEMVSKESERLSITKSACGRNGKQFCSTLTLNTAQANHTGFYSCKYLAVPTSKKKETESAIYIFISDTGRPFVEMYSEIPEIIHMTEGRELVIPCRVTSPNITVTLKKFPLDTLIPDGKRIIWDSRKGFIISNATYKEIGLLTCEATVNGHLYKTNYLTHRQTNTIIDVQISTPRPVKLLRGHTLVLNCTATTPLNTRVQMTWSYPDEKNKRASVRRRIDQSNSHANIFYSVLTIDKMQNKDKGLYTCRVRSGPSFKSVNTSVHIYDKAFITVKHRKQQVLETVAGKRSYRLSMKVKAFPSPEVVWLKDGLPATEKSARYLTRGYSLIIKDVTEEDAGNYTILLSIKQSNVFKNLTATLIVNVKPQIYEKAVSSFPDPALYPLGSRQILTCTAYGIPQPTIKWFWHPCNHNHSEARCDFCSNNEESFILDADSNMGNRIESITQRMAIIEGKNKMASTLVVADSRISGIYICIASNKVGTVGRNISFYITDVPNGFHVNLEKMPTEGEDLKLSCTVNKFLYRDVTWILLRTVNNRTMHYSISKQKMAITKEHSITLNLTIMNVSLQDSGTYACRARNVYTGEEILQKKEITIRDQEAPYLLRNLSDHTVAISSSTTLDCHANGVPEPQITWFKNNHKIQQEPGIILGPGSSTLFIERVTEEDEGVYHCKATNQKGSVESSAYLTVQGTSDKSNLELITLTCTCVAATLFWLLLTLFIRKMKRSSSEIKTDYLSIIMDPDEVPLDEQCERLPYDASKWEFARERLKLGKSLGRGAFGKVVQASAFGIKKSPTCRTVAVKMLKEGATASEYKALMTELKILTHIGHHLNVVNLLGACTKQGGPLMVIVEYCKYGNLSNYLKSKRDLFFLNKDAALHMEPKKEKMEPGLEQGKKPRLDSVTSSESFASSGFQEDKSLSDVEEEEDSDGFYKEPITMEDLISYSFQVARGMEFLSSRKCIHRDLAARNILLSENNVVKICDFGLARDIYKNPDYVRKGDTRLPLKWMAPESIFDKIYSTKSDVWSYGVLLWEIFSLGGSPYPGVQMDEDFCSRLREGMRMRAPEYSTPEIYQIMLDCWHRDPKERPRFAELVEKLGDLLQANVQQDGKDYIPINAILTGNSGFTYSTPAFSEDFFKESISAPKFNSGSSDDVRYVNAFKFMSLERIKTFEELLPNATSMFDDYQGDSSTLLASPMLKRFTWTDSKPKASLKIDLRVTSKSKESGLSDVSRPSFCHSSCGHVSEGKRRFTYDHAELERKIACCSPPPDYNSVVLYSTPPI

For the first experiment, the target named is 5-hydroxytryptamine receptor 1B (Rattus norvegicus, UniProt P28564). Note: in other assays of this panel Not Active means under 50% inhibition at 10 µM.
Chain of 5-hydroxytryptamine receptor 1B (P28564 whole entry): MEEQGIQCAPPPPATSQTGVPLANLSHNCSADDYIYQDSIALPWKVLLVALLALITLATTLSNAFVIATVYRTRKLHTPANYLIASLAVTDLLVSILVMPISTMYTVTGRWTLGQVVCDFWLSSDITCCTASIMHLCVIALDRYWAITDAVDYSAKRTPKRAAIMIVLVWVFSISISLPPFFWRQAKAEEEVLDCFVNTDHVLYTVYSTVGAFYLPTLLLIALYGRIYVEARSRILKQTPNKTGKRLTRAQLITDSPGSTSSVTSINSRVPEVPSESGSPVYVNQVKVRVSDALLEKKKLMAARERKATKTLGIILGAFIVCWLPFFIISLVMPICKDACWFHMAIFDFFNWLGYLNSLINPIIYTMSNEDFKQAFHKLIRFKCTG
Experiment: not given
Format: cell membranes, Wistar, Cerebral cortex, Membrane.
Settings: not given
On to `Cc1c(C)c2c(c(C)c1O)CCC(C)(CN1CCN(c3cc(N4CCCC4)nc(N4CCCC4)n3)CC1)O2` (stereo not given), for which the IC50 result was “Not Active”.

Take `COc1ccc(CCN(C)CCCC(C#N)(c2ccc(OC)c(OC)c2)C(C)C)cc1OC` (stereo not given): the IC50 entry was “Not Active”.

Consider `CC(C)Cc1ccc([C@@H](C)C(=O)O)cc1` [(R)-IBUPROPHEN], for which the IC50 entry is “Not Active”.

With `CN(C)CCOC(c1ccccc1)c1ccccc1` [DIPHENHYDRAMINE], the IC50 result was “Not Active”.

In the case of `CCN(CC)CCOc1ccc(/C(=C(/Cl)c2ccccc2)c2ccccc2)cc1` [ENCLOMIPHENE], the IC50 entry is recorded as “Not Active”.

With `Fc1ccc(C(c2ccc(F)cc2)N2CCN(C/C=C/c3ccccc3)CC2)cc1` [FLUNARIZINE], the IC50 entry is listed as “Not Active”.

For `CNCCC(Oc1ccc(C(F)(F)F)cc1)c1ccccc1` (stereo not given) [FLUOXETINE], the IC50 entry is reported as “Not Active”.

As to `Cc1ccc(NC(=O)c2ccc(CN3CCN(C)CC3)cc2)cc1Nc1nccc(-c2cccnc2)n1` [IMATINIB], the IC50 result is given as “Not Active”.

In the case of `CC(C)Oc1ccc2c(=O)c(-c3ccccc3)coc2c1` [IPRIFLAVONE], the IC50 result is reported as “Not Active”.

In the next experiment the target is T1, Endothelin-1 receptor (Homo sapiens, UniProt P25101). Note: in other assays of this panel Not Active means under 50% inhibition at 10 µM.
T1 sequence (P25101 whole entry): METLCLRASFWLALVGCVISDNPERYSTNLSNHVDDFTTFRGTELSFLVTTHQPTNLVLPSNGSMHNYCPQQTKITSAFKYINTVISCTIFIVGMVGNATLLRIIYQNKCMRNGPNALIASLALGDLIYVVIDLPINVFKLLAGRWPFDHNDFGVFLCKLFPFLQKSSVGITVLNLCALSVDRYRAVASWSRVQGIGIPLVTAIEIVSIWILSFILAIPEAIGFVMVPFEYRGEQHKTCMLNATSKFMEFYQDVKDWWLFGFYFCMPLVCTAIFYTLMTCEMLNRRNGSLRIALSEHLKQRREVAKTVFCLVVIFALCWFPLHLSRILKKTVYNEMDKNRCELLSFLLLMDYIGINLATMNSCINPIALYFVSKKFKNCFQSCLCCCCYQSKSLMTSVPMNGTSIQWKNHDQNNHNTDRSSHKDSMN
Experiment: not given
It counts as cell membranes, Membrane. The conditions noted are these: cho-k1.
For the molecule `Cc1c(C)c2c(c(C)c1O)CCC(C)(CN1CCN(c3cc(N4CCCC4)nc(N4CCCC4)n3)CC1)O2` (stereo not given), the IC50 entry is reported as “Not Active”.

For `COc1ccc(CCN(C)CCCC(C#N)(c2ccc(OC)c(OC)c2)C(C)C)cc1OC` (stereo not given), the IC50 result is recorded as “Not Active”.

With `CC(C)Cc1ccc([C@@H](C)C(=O)O)cc1` [(R)-IBUPROPHEN], the IC50 entry was “Not Active”.

For `CN(C)CCOC(c1ccccc1)c1ccccc1` [DIPHENHYDRAMINE], the IC50 result is on record as “Not Active”.

Regarding `CCN(CC)CCOc1ccc(/C(=C(/Cl)c2ccccc2)c2ccccc2)cc1` [ENCLOMIPHENE], the IC50 result is “Not Active”.

Turning to `Fc1ccc(C(c2ccc(F)cc2)N2CCN(C/C=C/c3ccccc3)CC2)cc1` [FLUNARIZINE], the IC50 entry is “Not Active”.

Consider `CNCCC(Oc1ccc(C(F)(F)F)cc1)c1ccccc1` (stereo not given) [FLUOXETINE], for which the IC50 entry is reported as “Not Active”.

Take `Cc1ccc(NC(=O)c2ccc(CN3CCN(C)CC3)cc2)cc1Nc1nccc(-c2cccnc2)n1` [IMATINIB]: the IC50 entry was “Not Active”.

As to `CC(C)Oc1ccc2c(=O)c(-c3ccccc3)coc2c1` [IPRIFLAVONE], the IC50 result is “Not Active”.

The target of another experiment is Protein kinase C alpha type (Homo sapiens, UniProt P17252).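 Note: inhibition of PKCalpha kinase activity measured in an enzyme assay with histone as the phosphorylation substrate; in other assays of this panel Not Active means under 50% inhibition at 10 µM.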
Experiment: not given
It counts as cell-based. The conditions noted are these: sf9.
Consider `Cc1c(C)c2c(c(C)c1O)CCC(C)(CN1CCN(c3cc(N4CCCC4)nc(N4CCCC4)n3)CC1)O2` (stereo not given), for which the IC50 entry is listed as “Not Active”.

Take `COc1ccc(CCN(C)CCCC(C#N)(c2ccc(OC)c(OC)c2)C(C)C)cc1OC` (stereo not given): the IC50 entry is given as “Not Active”.

Turning to `CC(C)Cc1ccc([C@@H](C)C(=O)O)cc1` [(R)-IBUPROPHEN], the IC50 entry is “Not Active”.

On to `CN(C)CCOC(c1ccccc1)c1ccccc1` [DIPHENHYDRAMINE], for which the IC50 entry is given as “Not Active”.

As to `CCN(CC)CCOc1ccc(/C(=C(/Cl)c2ccccc2)c2ccccc2)cc1` [ENCLOMIPHENE], the IC50 result is recorded as “Not Active”.

For the molecule `Fc1ccc(C(c2ccc(F)cc2)N2CCN(C/C=C/c3ccccc3)CC2)cc1` [FLUNARIZINE], the IC50 entry is recorded as “Not Active”.

For `CNCCC(Oc1ccc(C(F)(F)F)cc1)c1ccccc1` (stereo not given) [FLUOXETINE], the IC50 result is reported as “Not Active”.

`Cc1ccc(NC(=O)c2ccc(CN3CCN(C)CC3)cc2)cc1Nc1nccc(-c2cccnc2)n1` [IMATINIB]: the IC50 entry was “Not Active”.

Consider `CC(C)Oc1ccc2c(=O)c(-c3ccccc3)coc2c1` [IPRIFLAVONE], for which the IC50 entry is given as “Not Active”.

System in the next experiment: not listed separately
Put plainly: DRUGMATRIX: Purinergic P2X radioligand binding (ligand: [3H] alpha, beta-Methylene-ATP). Format: cell membranes, Oryctolagus cuniculus, New Zealand albino, Urinary bladder, Membrane. The following applies: Not Active = under 50% inhibition at 10 µM.
`Cc1c(C)c2c(c(C)c1O)CCC(C)(CN1CCN(c3cc(N4CCCC4)nc(N4CCCC4)n3)CC1)O2` (stereo not given): the IC50 result is “Not Active” and the Ki result is “Not Active”.

As to `COc1ccc(CCN(C)CCCC(C#N)(c2ccc(OC)c(OC)c2)C(C)C)cc1OC` (stereo not given), the IC50 result is recorded as “Not Active” and the Ki result was “Not Active”.

For the molecule `CC(C)Cc1ccc([C@@H](C)C(=O)O)cc1` [(R)-IBUPROPHEN], the IC50 entry is “Not Active” and the Ki result is “Not Active”.

For the molecule `CC(C)Oc1ccc2c(=O)c(-c3ccccc3)coc2c1` [IPRIFLAVONE], the IC50 entry is recorded as “Not Active” and the Ki result is “Not Active”.

The target in another experiment is Adenosine receptor A2a (Homo sapiens, UniProt P29274). Description: DRUGMATRIX: Adenosine A2A radioligand binding (ligand: […]). Format: cell membranes, HEK293, Membrane. The conditions noted are these: hek293; Not Active = under 50% inhibition at 10 µM.
Chain of Adenosine receptor A2a (P29274 whole entry): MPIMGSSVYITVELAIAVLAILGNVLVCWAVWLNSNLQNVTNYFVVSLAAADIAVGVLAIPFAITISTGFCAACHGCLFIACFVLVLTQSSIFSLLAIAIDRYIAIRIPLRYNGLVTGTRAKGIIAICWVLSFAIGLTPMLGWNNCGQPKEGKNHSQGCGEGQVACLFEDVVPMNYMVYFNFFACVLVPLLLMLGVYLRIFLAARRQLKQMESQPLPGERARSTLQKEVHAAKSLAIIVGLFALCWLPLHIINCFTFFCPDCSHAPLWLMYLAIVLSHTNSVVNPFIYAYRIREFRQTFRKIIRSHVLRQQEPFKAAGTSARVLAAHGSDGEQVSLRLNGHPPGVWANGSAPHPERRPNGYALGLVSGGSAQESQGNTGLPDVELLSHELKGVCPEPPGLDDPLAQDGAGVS
For `Cc1c(C)c2c(c(C)c1O)CCC(C)(CN1CCN(c3cc(N4CCCC4)nc(N4CCCC4)n3)CC1)O2` (stereo not given), the IC50 entry is on record as “Not Active”.

Regarding `COc1ccc(CCN(C)CCCC(C#N)(c2ccc(OC)c(OC)c2)C(C)C)cc1OC` (stereo not given), the IC50 entry is on record as “Not Active”.

For `CC(C)Cc1ccc([C@@H](C)C(=O)O)cc1` [(R)-IBUPROPHEN], the IC50 entry is given as “Not Active”.

As for `CN(C)CCOC(c1ccccc1)c1ccccc1` [DIPHENHYDRAMINE], the IC50 entry is listed as “Not Active”.

As for `CCN(CC)CCOc1ccc(/C(=C(/Cl)c2ccccc2)c2ccccc2)cc1` [ENCLOMIPHENE], the IC50 result is “Not Active”.

In the case of `Fc1ccc(C(c2ccc(F)cc2)N2CCN(C/C=C/c3ccccc3)CC2)cc1` [FLUNARIZINE], the IC50 result is on record as “Not Active”.

For the molecule `CNCCC(Oc1ccc(C(F)(F)F)cc1)c1ccccc1` (stereo not given) [FLUOXETINE], the IC50 entry was “Not Active”.

Take `Cc1ccc(NC(=O)c2ccc(CN3CCN(C)CC3)cc2)cc1Nc1nccc(-c2cccnc2)n1` [IMATINIB]: the IC50 result was “Not Active”.

On to `CC(C)Oc1ccc2c(=O)c(-c3ccccc3)coc2c1` [IPRIFLAVONE], for which the IC50 entry is reported as “Not Active”.

The target of another experiment is Substance-P receptor (Homo sapiens, UniProt P25103). Note: in other assays of this panel Not Active means under 50% inhibition at 10 µM.
Chain of Substance-P receptor (P25103 whole entry): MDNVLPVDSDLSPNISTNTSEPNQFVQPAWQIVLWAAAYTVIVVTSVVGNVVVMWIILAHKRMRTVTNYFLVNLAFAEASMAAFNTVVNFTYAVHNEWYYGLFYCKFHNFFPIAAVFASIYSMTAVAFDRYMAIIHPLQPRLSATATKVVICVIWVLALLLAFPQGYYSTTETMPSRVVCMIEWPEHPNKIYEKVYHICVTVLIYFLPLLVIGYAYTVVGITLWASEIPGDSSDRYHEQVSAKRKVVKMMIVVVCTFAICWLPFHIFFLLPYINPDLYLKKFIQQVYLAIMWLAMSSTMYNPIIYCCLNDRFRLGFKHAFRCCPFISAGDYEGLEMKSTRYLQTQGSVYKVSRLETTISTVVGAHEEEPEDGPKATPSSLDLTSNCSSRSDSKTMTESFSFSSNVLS
Experiment: not given
The following applies: cho. Format: cell membranes, CHO, Membrane.
Turning to `Cc1c(C)c2c(c(C)c1O)CCC(C)(CN1CCN(c3cc(N4CCCC4)nc(N4CCCC4)n3)CC1)O2` (stereo not given), the IC50 result is given as “Not Active”.

`COc1ccc(CCN(C)CCCC(C#N)(c2ccc(OC)c(OC)c2)C(C)C)cc1OC` (stereo not given): the IC50 result is on record as “Not Active”.

Consider `CC(C)Cc1ccc([C@@H](C)C(=O)O)cc1` [(R)-IBUPROPHEN], for which the IC50 result is “Not Active”.

Turning to `CN(C)CCOC(c1ccccc1)c1ccccc1` [DIPHENHYDRAMINE], the IC50 entry is reported as “Not Active”.

As to `CCN(CC)CCOc1ccc(/C(=C(/Cl)c2ccccc2)c2ccccc2)cc1` [ENCLOMIPHENE], the IC50 result was “Not Active”.

Consider `Fc1ccc(C(c2ccc(F)cc2)N2CCN(C/C=C/c3ccccc3)CC2)cc1` [FLUNARIZINE], for which the IC50 result is given as “Not Active”.

Turning to `CNCCC(Oc1ccc(C(F)(F)F)cc1)c1ccccc1` (stereo not given) [FLUOXETINE], the IC50 entry was “Not Active”.

Turning to `Cc1ccc(NC(=O)c2ccc(CN3CCN(C)CC3)cc2)cc1Nc1nccc(-c2cccnc2)n1` [IMATINIB], the IC50 entry is reported as “Not Active”.

Regarding `CC(C)Oc1ccc2c(=O)c(-c3ccccc3)coc2c1` [IPRIFLAVONE], the IC50 entry is given as “Not Active”.

Another experiment addresses Vascular endothelial growth factor receptor 1 (Homo sapiens, UniProt P17948). Description: biochemical. It counts as cell-based, HUVEC. The conditions noted are these: huvec.
As to `Cc1c(C)c2c(c(C)c1O)CCC(C)(CN1CCN(c3cc(N4CCCC4)nc(N4CCCC4)n3)CC1)O2` (stereo not given), the IC50 result is listed as “Not Active”.

As for `COc1ccc(CCN(C)CCCC(C#N)(c2ccc(OC)c(OC)c2)C(C)C)cc1OC` (stereo not given), the IC50 result is reported as “Not Active”.

Regarding `CC(C)Cc1ccc([C@@H](C)C(=O)O)cc1` [(R)-IBUPROPHEN], the IC50 result was “Not Active”.

With `CN(C)CCOC(c1ccccc1)c1ccccc1` [DIPHENHYDRAMINE], the IC50 result is on record as “Not Active”.

For `CCN(CC)CCOc1ccc(/C(=C(/Cl)c2ccccc2)c2ccccc2)cc1` [ENCLOMIPHENE], the IC50 entry is “Not Active”.

With `Fc1ccc(C(c2ccc(F)cc2)N2CCN(C/C=C/c3ccccc3)CC2)cc1` [FLUNARIZINE], the IC50 result is “Not Active”.

Take `CNCCC(Oc1ccc(C(F)(F)F)cc1)c1ccccc1` (stereo not given) [FLUOXETINE]: the IC50 entry is “Not Active”.

`CC(C)Oc1ccc2c(=O)c(-c3ccccc3)coc2c1` [IPRIFLAVONE]: the IC50 entry is recorded as “Not Active”.

In the next experiment the target is T2, Neutrophil elastase (Homo sapiens, UniProt P08246).
T2 sequence (P08246 whole entry): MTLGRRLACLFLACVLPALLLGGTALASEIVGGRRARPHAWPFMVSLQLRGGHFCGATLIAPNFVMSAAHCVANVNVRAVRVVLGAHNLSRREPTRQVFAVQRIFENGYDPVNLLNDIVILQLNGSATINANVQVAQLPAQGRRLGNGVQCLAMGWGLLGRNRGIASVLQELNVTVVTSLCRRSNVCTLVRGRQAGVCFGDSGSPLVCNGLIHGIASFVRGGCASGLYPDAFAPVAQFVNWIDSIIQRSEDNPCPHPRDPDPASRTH
Experiment: not given
It counts as tissue-based.
Settings: not given
With `Cc1c(C)c2c(c(C)c1O)CCC(C)(CN1CCN(c3cc(N4CCCC4)nc(N4CCCC4)n3)CC1)O2` (stereo not given), the IC50 entry is listed as “Not Active”.

On to `COc1ccc(CCN(C)CCCC(C#N)(c2ccc(OC)c(OC)c2)C(C)C)cc1OC` (stereo not given), for which the IC50 result is listed as “Not Active”.

Take `CC(C)Cc1ccc([C@@H](C)C(=O)O)cc1` [(R)-IBUPROPHEN]: the IC50 entry is “Not Active”.

Regarding `CN(C)CCOC(c1ccccc1)c1ccccc1` [DIPHENHYDRAMINE], the IC50 result was “Not Active”.

Turning to `CCN(CC)CCOc1ccc(/C(=C(/Cl)c2ccccc2)c2ccccc2)cc1` [ENCLOMIPHENE], the IC50 result is “Not Active”.

As for `Fc1ccc(C(c2ccc(F)cc2)N2CCN(C/C=C/c3ccccc3)CC2)cc1` [FLUNARIZINE], the IC50 result is recorded as “Not Active”.

Consider `CNCCC(Oc1ccc(C(F)(F)F)cc1)c1ccccc1` (stereo not given) [FLUOXETINE], for which the IC50 entry is reported as “Not Active”.

As to `Cc1ccc(NC(=O)c2ccc(CN3CCN(C)CC3)cc2)cc1Nc1nccc(-c2cccnc2)n1` [IMATINIB], the IC50 entry is reported as “Not Active”.

Regarding `CC(C)Oc1ccc2c(=O)c(-c3ccccc3)coc2c1` [IPRIFLAVONE], the IC50 result is recorded as “Not Active”.
